Measured values: patent US8658661B2, “Oxadiazole inhibitors of leukotriene production” (Boehringer Ingelheim International GmbH, priority 2010, dated 2014)

Experiments:
[1] = target: T1, recombinant human FLAP protein (Homo sapiens, UniProt P20292); test: FLAP binding assay (SPA, displacement of [125I]L-691,831); conditions: for IC50: membranes of sf9 cells expressing recombinant human FLAP, [125I]L-691,831 probe, read-out: FLAP binding IC50
T1 construct: made in house; host or cells: Sf9 insect cells (100,000×g membrane pellet used)
T1 sequence (P20292 1-161): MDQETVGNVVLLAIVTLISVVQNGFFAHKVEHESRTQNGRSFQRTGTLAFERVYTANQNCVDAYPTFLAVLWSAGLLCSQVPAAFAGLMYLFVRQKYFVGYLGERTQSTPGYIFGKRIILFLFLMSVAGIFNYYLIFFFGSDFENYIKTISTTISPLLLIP
Procedure, shortened: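 Membranes from sf9 cells expressing human FLAP in pH 7.5 Tris buffer (MgCl2, EDTA, PMSF). Non-specific binding defined with 10 μM cold L-691,831.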

[2] = test system: synthesis of LTB4 in human whole blood; test: Human whole blood assay (inhibition of LTB4 synthesis, calcimycin stimulated); assay type: cell-based; conditions: heparinized human whole blood, calcimycin 20 μM, plasma LTB4
Procedure, shortened: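 Readout: plasma LTB4 by antibody-based HTRF. Compound added to heparinized human whole blood, 15 min 37° C; calcimycin 20 μM final (PBS pH 7.4), 30 min 37° C; spun 1500×g 5 min, plasma taken.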

IC50 [1] [µM]	IC50 [2] [µM]	inhibition at 1 µM ([1]; at 1000 nM, read-out: FLAP binding % inh @ 1000 nM) [%]	Structure (SMILES)
0.023	0.35		CC(C)C(C)(c1ccc(-c2cnc(N)nc2)cc1)c1noc(NCCO)n1 (stereo not shown) [Example 80, 2-[(3-{2-[4-(2-aminopyrimidin-5-yl)phenyl]-3-methylbutan-2-yl}-1,2,4-oxadiazol-5-yl)amino]ethanol]
0.011	0.18		COCCNc1nc(C(C)(c2ccc(-c3cnc(N)nc3)cc2)C(C)C)no1 (stereo not shown) [Example 81, 5-[4-(2-{5-[(2-methoxyethyl)amino]-1,2,4-oxadiazol-3-yl}-3-methylbutan-2-yl)phenyl]pyrimidin-2-amine]
0.013	0.22		CC(C)C(C)(c1ccc(-c2cnc(N)nc2)cc1)c1noc(NCC(C)(C)O)n1 (stereo not shown) [Example 82, 1-[(3-{2-[4-(2-aminopyrimidin-5-yl)phenyl]-3-methylbutan-2-yl}-1,2,4-oxadiazol-5-yl)amino]-2-methylpropan-2-ol]
0.026	1.1		CC(C)C(C)(c1ccc(-c2cnc(N)nc2)cc1)c1noc(N2CCNCC2)n1 (stereo not shown) [Example 83, 5-(4-{3-methyl-2-[5-(piperazin-1-yl)-1,2,4-oxadiazol-3-yl]butan-2-yl}phenyl)pyrimidin-2-amine]
0.12	1.7		CC(C)C(C)(c1ccc(-c2cnc(N)nc2)cc1)c1noc(C(=O)N2CCNCC2)n1 (stereo not shown) [Example 84, (3-{2-[4-(2-aminopyrimidin-5-yl)phenyl]-3-methylbutan-2-yl}-1,2,4-oxadiazol-5-yl)(piperazin-1-yl)methanone]
0.048	> 5		CC(C)C(C)(c1ccc(-c2cnc(N)nc2)cc1)c1noc(CCC(C)(C)C(=O)O)n1 (stereo not shown) [Example 85, 4-(3-{2-[4-(2-aminopyrimidin-5-yl)phenyl]-3-methylbutan-2-yl}-1,2,4-oxadiazol-5-yl)-2,2-dimethylbutanoic acid]
0.19	> 5		CC(=O)N1CCC(NC(=O)c2nc(C(C)(c3ccc(-c4cnc(N)nc4)cc3)C(C)C)no2)CC1 (stereo not shown) [Example 86, N-(1-acetylpiperidin-4-yl)-3-{2-[4-(2-aminopyrimidin-5-yl)phenyl]-3-methylbutan-2-yl}-1,2,4-oxadiazole-5-carboxamide]
0.041	0.97		CC(C)C(C)(c1ccc(-c2cnc(N)nc2)cc1)c1noc(NCCS(C)(=O)=O)n1 (stereo not shown) [Example 87, 5-{4-[3-methyl-2-(5-{[2-(methylsulfonyl)ethyl]amino}-1,2,4-oxadiazol-3-yl)butan-2-yl]phenyl}pyrimidin-2-amine]
	> 5	51	CC(C)C(C)(c1ccc(-c2cnc(N)nc2)cc1)c1noc(O)n1 (stereo not shown) [Example 88, 3-{1-[4-(2-Amino-pyrimidin-5-yl)-phenyl]-1,2-dimethyl-propyl}-[1,2,4]oxadiazol-5-ol]
0.013	0.27		CC(C)C(C)(c1ccc(-c2cnc(N)nc2)cc1)c1noc(N2CCOCC2)n1 (stereo not shown) [Example 89, 5-(4-{3-methyl-2-[5-(morpholin-4-yl)-1,2,4-oxadiazol-3-yl]butan-2-yl}phenyl)pyrimidin-2-amine]
0.063	1.5		CC(C)C(C)(c1ccc(-c2cnc(N)nc2)cc1)c1noc(C(=O)N2CCOCC2)n1 (stereo not shown) [Example 90, (3-{2-[4-(2-aminopyrimidin-5-yl)phenyl]-3-methylbutan-2-yl}-1,2,4-oxadiazol-5-yl)(morpholin-4-yl)methanone]
0.054	1.3		CC(C)C(C)(c1ccc(-c2cnc(N)nc2)cc1)c1noc(C(=O)N2CCN(C)CC2)n1 (stereo not shown) [Example 91, (3-{2-[4-(2-aminopyrimidin-5-yl)phenyl]-3-methylbutan-2-yl}-1,2,4-oxadiazol-5-yl)(4-methylpiperazin-1-yl)methanone]
0.11	> 5		CC(C)C(C)(c1ccc(-c2cnc(N)nc2)cc1)c1noc(C(C)(C)CC(=O)O)n1 (stereo not shown) [Example 92, 3-(3-{2-[4-(2-aminopyrimidin-5-yl)phenyl]-3-methylbutan-2-yl}-1,2,4-oxadiazol-5-yl)-3-methylbutanoic acid]
0.24	> 5		CC(C)C(C)(c1ccc(-c2cnc(N)nc2)cc1)c1noc(CC(C)(C)C(=O)O)n1 (stereo not shown) [Example 93, 3-(3-{2-[4-(2-aminopyrimidin-5-yl)phenyl]-3-methylbutan-2-yl}-1,2,4-oxadiazol-5-yl)-2,2-dimethylpropanoic acid]
0.35	> 5		CC(C)C(C)(c1ccc(-c2cnc(N)nc2)cc1)c1noc(CCC(=O)O)n1 (stereo not shown) [Example 94, 3-(3-{2-[4-(2-aminopyrimidin-5-yl)phenyl]-3-methylbutan-2-yl}-1,2,4-oxadiazol-5-yl)propanoic acid]
0.13	> 5		CC(C)C(C)(c1ccc(-c2cnc(N)nc2)cc1)c1noc(C2(C(=O)O)CC2)n1 (stereo not shown) [Example 95, 1-(3-{2-[4-(2-aminopyrimidin-5-yl)phenyl]-3-methylbutan-2-yl}-1,2,4-oxadiazol-5-yl)cyclopropanecarboxylic acid]
0.0075	0.15		CC(C)C(C)(c1ccc(-c2cnc(N)nc2)cc1)c1noc(N2CCN(C)CC2)n1 (stereo not shown) [Example 96, 5-(4-{3-methyl-2-[5-(4-methylpiperazin-1-yl)-1,2,4-oxadiazol-3-yl]butan-2-yl}phenyl)pyrimidin-2-amine]
0.0088	0.17		CN(C)C(=O)Cn1cc(-c2nc(C(C)(c3ccc(-c4cnc(N)nc4)cc3)C3CCC3)no2)cn1 (stereo not shown) [Example 97, 2-[4-(3-{1-[4-(2-aminopyrimidin-5-yl)phenyl]-1-cyclobutylethyl}-1,2,4-oxadiazol-5-yl)-1H-pyrazol-1-yl]-N,N-dimethylacetamide]
0.012	0.57		CNC(=O)Cn1cc(-c2nc(C(C)(c3ccc(-c4cnc(N)nc4)cc3)C3CCC3)no2)cn1 (stereo not shown) [Example 98, 2-[4-(3-{1-[4-(2-aminopyrimidin-5-yl)phenyl]-1-cyclobutylethyl}-1,2,4-oxadiazol-5-yl)-1H-pyrazol-1-yl]-N-methylacetamide]
0.0039	0.2		CC(c1ccc(-c2cnc(N)nc2)cc1)(c1noc(-c2cnn(C3COC3)c2)n1)C1CCC1 (stereo not shown) [Example 99, 5-[4-(1-cyclobutyl-1-{5-[1-(oxetan-3-yl)-1H-pyrazol-4-yl]-1,2,4-oxadiazol-3-yl}ethyl)phenyl]pyrimidin-2-amine]
0.0023	0.11		COCCn1cc(-c2nc([C@@](C)(c3ccc(-c4cnc(N)nc4)cc3)C3CCC3)no2)cn1 [Example 100, 5-{4-[(1R)-1-cyclobutyl-1-{5-[1-(2-methoxyethyl)-1H-pyrazol-4-yl]-1,2,4-oxadiazol-3-yl}ethyl]phenyl}pyrimidin-2-amine]
0.28	> 5		COCCn1cc(-c2nc([C@](C)(c3ccc(-c4cnc(N)nc4)cc3)C3CCC3)no2)cn1 [Example 101, 5-{4-[(1S)-1-cyclobutyl-1-{5-[1-(2-methoxyethyl)-1H-pyrazol-4-yl]-1,2,4-oxadiazol-3-yl}ethyl]phenyl}pyrimidin-2-amine]
0.0016	0.051		C[C@@](c1ccc(-c2cnc(N)nc2)cc1)(c1noc(-c2cnn(C3COC3)c2)n1)C1CCC1 [Example 102, 5-{4-[(1R)-1-cyclobutyl-1-{5-[1-(oxetan-3-yl)-1H-pyrazol-4-yl]-1,2,4-oxadiazol-3-yl}ethyl]phenyl}pyrimidin-2-amine]
0.13	2.7		C[C@](c1ccc(-c2cnc(N)nc2)cc1)(c1noc(-c2cnn(C3COC3)c2)n1)C1CCC1 [Example 103, 5-{4-[(1S)-1-cyclobutyl-1-{5-[1-(oxetan-3-yl)-1H-pyrazol-4-yl]-1,2,4-oxadiazol-3-yl}ethyl]phenyl}pyrimidin-2-amine]
0.0061	0.13		CN(C)C(=O)Cn1cc(-c2nc([C@@](C)(c3ccc(-c4cnc(N)nc4)cc3)C3CCC3)no2)cn1 [Example 104, 2-[4-(3-{(1R)-1-[4-(2-aminopyrimidin-5-yl)phenyl]-1-cyclobutylethyl}-1,2,4-oxadiazol-5-yl)-1H-pyrazol-1-yl]-N,N-dimethylacetamide]
0.49	> 5		CN(C)C(=O)Cn1cc(-c2nc([C@](C)(c3ccc(-c4cnc(N)nc4)cc3)C3CCC3)no2)cn1 [Example 105, 2-[4-(3-{(1S)-1-[4-(2-aminopyrimidin-5-yl)phenyl]-1-cyclobutylethyl}-1,2,4-oxadiazol-5-yl)-1H-pyrazol-1-yl]-N,N-dimethylacetamide]
0.0048	0.076		CC(C)C(C)(c1ccc(-c2cnc(N)nc2)cc1)c1noc(-c2cnn(CC(=O)N(C)C)c2)n1 (stereo not shown) [Example 106, 2-[4-(3-{2-[4-(2-aminopyrimidin-5-yl)phenyl]-3-methylbutan-2-yl}-1,2,4-oxadiazol-5-yl)-1H-pyrazol-1-yl]-N,N-dimethylacetamide]
0.00086	0.017		CC(C)[C@](C)(c1ccc(-c2cnc(N)nc2)cc1)c1noc(-c2cnn(CC(C)(C)O)c2)n1 [Example 107, 1-[4-(3-{(2R)-2-[4-(2-aminopyrimidin-5-yl)phenyl]-3-methylbutan-2-yl}-1,2,4-oxadiazol-5-yl)-1H-pyrazol-1-yl]-2-methylpropan-2-ol]
0.0087	0.32		CC(C)[C@@](C)(c1ccc(-c2cnc(N)nc2)cc1)c1noc(-c2cnn(CC(C)(C)O)c2)n1 [Example 108, 1-[4-(3-{(2S)-2-[4-(2-aminopyrimidin-5-yl)phenyl]-3-methylbutan-2-yl}-1,2,4-oxadiazol-5-yl)-1H-pyrazol-1-yl]-2-methylpropan-2-ol]
